Data taken from patent publication US20230086702A1, “SUBSTITUTED 2-AMINO-PYRAZOLYL-[1,2,4]TRIAZOLO[1,5A]PYRIDINE DERIVATIVES AND USE THEREOF” (The Johns Hopkins University, priority 2019, published 2023).

Tests used:
LZK = molecular target: T1, LZK (Homo sapiens, UniProt O43283); assay: LZK biochemical assay (TR-FRET, MKK7 phosphorylation)
T1 construct: 10 nM LZK, catalytic domain, Carna Biosiences in assay buffer; purchased Carna Biosciences ('Carna Biosiences' [sic])
T1 sequence (O43283 168-409 limits assumed): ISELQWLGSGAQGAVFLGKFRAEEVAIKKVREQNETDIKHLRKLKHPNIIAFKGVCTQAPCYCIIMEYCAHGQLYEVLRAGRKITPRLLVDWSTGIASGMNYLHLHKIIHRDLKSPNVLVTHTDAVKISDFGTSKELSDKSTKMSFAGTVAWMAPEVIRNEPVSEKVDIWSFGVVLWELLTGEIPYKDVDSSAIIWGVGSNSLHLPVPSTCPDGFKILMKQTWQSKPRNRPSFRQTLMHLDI
How it was run: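 Read-out is HTRF: Eu-labelled anti-phospho-MKK7 (T275/S277) and XL665 anti-His, incubated 16 h at 32 °C, with a drop in signal marking inhibition. Reaction beforehand: 10 nM LZK kinase domain, 15 nM His-MKK7, 15 µM ATP (final) for 90 min at room temperature, pH 7.5.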

DLK = molecular target: T2, DLK (Homo sapiens, UniProt Q12852); assay: DLK biochemical assay (TR-FRET, MKK7 phosphorylation)
T2 construct: 10 nM DLK, catalytic domain, Carna Biosiences; purchased Carna Biosciences ('Carna Biosiences' [sic])
T2 sequence (Q12852 125-366 limits assumed): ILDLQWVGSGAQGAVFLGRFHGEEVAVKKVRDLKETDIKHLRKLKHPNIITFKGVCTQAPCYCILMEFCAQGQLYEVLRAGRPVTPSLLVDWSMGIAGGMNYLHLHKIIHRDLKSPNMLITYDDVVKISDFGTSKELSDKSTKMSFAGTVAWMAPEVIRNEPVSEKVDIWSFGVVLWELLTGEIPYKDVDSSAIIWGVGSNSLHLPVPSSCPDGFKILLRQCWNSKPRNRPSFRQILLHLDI
How it was run: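 TR-FRET read-out (665/Eu ratio) of MKK7 T275/S277 phosphorylation, with inhibition lowering the signal. Final conditions: 10 nM DLK catalytic domain, 15 nM MKK7, 60 μM ATP, 90 min at RT. Detection incubation 16 h at 37° C in 1536-well or 4° C in 384-well format.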

Row | Structure (SMILES) | IC50 (LZK) | IC50 (DLK)
1 | CC[C@@H](c1ccccc1)n1cc(-c2cc(-c3cnn(CC)c3)c3nc(N)nn3c2)cn1 [II-91, 8-(1-Ethyl-1H-pyrazol-4-yl)-6-{1-[(1S)-1-phenylpropyl]-1H-pyrazol-4-yl}[1,2,4]triazolo[1,5-a]pyridin-2-amine] | 115 nM | 5.2 nM
2 | CCC(c1ccc(C(F)F)nc1)n1cc(-c2cc(-c3cnn(CC(F)(F)F)c3)c3nc(N)nn3c2)cn1 (single isomer, unassigned) [II-107, 6-(1-{1-[6-(Difluoromethyl)pyridin-3-yl]propyl}-1H-pyrazol-4-yl)-8-[1-(2,2,2-trifluoroethyl)-1H-pyrazol-4-yl][1,2,4]triazolo[1,5-a]pyridin-2-amine] | 10 nM | 4 nM
3 | CCC(c1ccc(C(F)(F)F)nc1)n1cc(-c2cc(-c3cccc(C(C)(C)O)c3)c3nc(N)nn3c2)cn1 (single isomer, unassigned) [II-9, 2-{3-[2-Amino-6-(1-{1-[6-(trifluoromethyl)pyridin-3-yl]propyl}-1H-pyrazol-4-yl)[1,2,4]triazolo[1,5-a]pyridin-8-yl]phenyl}propan-2-ol] | 2.3 nM | 1 nM
4 | CC(C)C(c1ccc(C(F)(F)F)nc1)n1cc(-c2cc(-c3cnn(C4CCCC4)c3)n3nc(N)nc3c2)cn1 (single isomer, unassigned) [II-144, 5-(1-Cyclopentyl-1H-pyrazol-4-yl)-7-(1-{2-methyl-1-[6-(trifluoromethyl)pyridin-3-yl]propyl}-1H-pyrazol-4-yl)[1,2,4]triazolo[1,5-a]pyridin-2-amine] | 57 nM | 27 nM
5 | CC(C)C(c1ccc(C(F)F)nc1)n1cc(-c2cc(-c3ccc(OC(F)F)nc3)n3nc(N)nc3c2)cn1 (single isomer, unassigned) [II-50, 5-[6-(Difluoromethoxy)pyridin-3-yl]-7-(1-{1-[6-(difluoromethyl)pyridin-3-yl]-2-methylpropyl}-1H-pyrazol-4-yl)[1,2,4]triazolo[1,5-a]pyridin-2-amine] | 270 nM | 280 nM
6 | CCC(c1ccc(C(F)(F)F)cc1)n1cc(-c2cc(-c3cnn(C)c3)c3nc(N)nn3c2)cn1 (racemic) [II-99, 8-(1-Methyl-1H-pyrazol-4-yl)-6-(1-{1-[4-(trifluoromethyl)phenyl]propyl}-1H-pyrazol-4-yl)[1,2,4]triazolo[1,5-a]pyridin-2-amine] | 150 nM | 9.2 nM
7 | CC[C@@H](c1ccc(C(F)(F)F)nc1)n1cc(-c2cc(-c3ccc(=O)n(CC(F)(F)F)c3)c3nc(N)nn3c2)cn1 [II-159, 5-[2-Amino-6-(1-{(1S)-1-[6-(trifluoromethyl)pyridin-3-yl]propyl}-1H-pyrazol-4-yl)[1,2,4]triazolo[1,5-a]pyridin-8-yl]-1-(2,2,2-trifluoroethyl)pyridin-2(1H)-one] | 6.2 nM | 2.4 nM
8 | CCC(c1ccc(C(F)F)nc1)n1cc(-c2cc(-c3ccc(C4CC4)nc3)n3nc(N)nc3c2)cn1 (single isomer, unassigned) [II-69, 5-(6-Cyclopropylpyridin-3-yl)-7-(1-{1-[6-(difluoromethyl)pyridin-3-yl]propyl}-1H-pyrazol-4-yl)[1,2,4]triazolo[1,5-a]pyridin-2-amine] | 9.4 nM | 4.8 nM
9 | CCC(c1ccc(C(F)(F)F)nc1)n1cc(-c2cc(-c3ccc(C(F)(F)F)nc3)c3nc(N)nn3c2)cn1 (single isomer, unassigned) [II-39, 8-[6-(Trifluoromethyl)pyridin-3-yl]-6-(1-{1-[6-(trifluoromethyl)pyridin-3-yl]propyl}-1H-pyrazol-4-yl)[1,2,4]triazolo[1,5-a]pyridin-2-amine] | 52 nM | 24 nM
10 | Nc1nc2c(-c3ccn(CC(F)(F)F)c(=O)c3)cc(-c3cnn(C(c4ccc(C(F)(F)F)nc4)C4CCOCC4)c3)cn2n1 (single isomer, unassigned) [II-177, 4-[2-Amino-6-(1-{tetrahydro-2H-pyran-4-yl[6-(trifluoromethyl)pyridin-3-yl]methyl}-1H-pyrazol-4-yl)[1,2,4]triazolo[1,5-a]pyridin-8-yl]-1-(2,2,2-trifluoroethyl)pyridin-2(1H)-one] | 33 nM | 10 nM
11 | CCC(c1ccc(C(F)(F)F)nc1)n1cc(-c2cc(-c3ccnc(C4(F)CC4)c3)n3nc(N)nc3c2)cn1 (single isomer, unassigned) [II-33, 5-[2-(1-Fluorocyclopropyl)pyridin-4-yl]-7-(1-{1-[6-(trifluoromethyl)pyridin-3-yl]propyl}-1H-pyrazol-4-yl)[1,2,4]triazolo[1,5-a]pyridin-2-amine] | 7.6 nM | 17 nM
12 | CC(C)C(c1ccc(C(F)F)nc1)n1cc(-c2cc(-c3ccc(C4CC4)nc3)n3nc(N)nc3c2)cn1 (single isomer, unassigned) [II-54, 5-(6-Cyclopropylpyridin-3-yl)-7-(1-{1-[6-(difluoromethyl)pyridin-3-yl]-2-methylpropyl}-1H-pyrazol-4-yl)[1,2,4]triazolo[1,5-a]pyridin-2-amine] | 8.9 nM | 4 nM

Second part, the compound after the results:

Row | IC50 (LZK) | IC50 (DLK) | Structure (SMILES)
13 | 5.3 nM | 5.2 nM | Nc1nc2cc(-c3cnn(C(c4ccc(C(F)F)nc4)C4CCOCC4)c3)cc(-c3ccc(C(F)(F)F)nc3)n2n1 (single isomer, unassigned) [II-78, 7-(1-{[6-(Difluoromethyl)pyridin-3-yl](tetrahydro-2H-pyran-4-yl)methyl}-1H-pyrazol-4-yl)-5-[6-(trifluoromethyl)pyridin-3-yl][1,2,4]triazolo[1,5-a]pyridin-2-amine]
14 | 200 nM | 3.6 nM | Nc1nc2cc(-c3cnn(C(c4ccccc4)C4CCOCC4)c3)cc(-c3cnn(CC(F)(F)F)c3)n2n1 (stereo not drawn) [II-146]
15 | 22 nM | 9.7 nM | CC[C@@H](c1ccc(OC(F)(F)F)nc1)n1cc(-c2cc(-c3cnn(CC(F)(F)F)c3)n3nc(N)nc3c2)cn1 (single isomer, unassigned) [II-116, 5-[1-(2,2,2-Trifluoroethyl)-1H-pyrazol-4-yl]-7-(1-{1-[6-(trifluoromethoxy)pyridin-3-yl]propyl}-1H-pyrazol-4-yl)[1,2,4]triazolo[1,5-a]pyridin-2-amine]
16 | 4.5 nM | 4.1 nM | Nc1nc2cc(-c3cnn(C(c4ccc(C(F)(F)F)nc4)C4CCOCC4)c3)cc(-c3ccc(=O)n(CC(F)F)c3)n2n1 (single isomer, unassigned) [II-186, 5-[2-Amino-7-(1-{tetrahydro-2H-pyran-4-yl[6-(trifluoromethyl)pyridin-3-yl]methyl}-1H-pyrazol-4-yl)[1,2,4]triazolo[1,5-a]pyridin-5-yl]-1-(2,2-difluoroethyl)pyridin-2(1H)-one]
17 | 720 nM | 40 nM | COc1cc(C(C(C)C)n2cc(-c3cc(-c4cnn(CC(F)(F)F)c4)n4nc(N)nc4c3)cn2)ccn1 (single isomer, unassigned) [II-137, 7-{1-[1-(2-Methoxypyridin-4-yl)-2-methylpropyl]-1H-pyrazol-4-yl}-5-[1-(2,2,2-trifluoroethyl)-1H-pyrazol-4-yl][1,2,4]triazolo[1,5-a]pyridin-2-amine]
18 | 29 nM | 3.8 nM | Nc1nc2c(-c3cnn(CC(F)(F)F)c3)cc(-c3cnn(C(c4ccc(C(F)(F)F)nc4)C4CCOCC4)c3)cn2n1 (racemic) [II-117, 6-(1-{Tetrahydro-2H-pyran-4-yl[6-(trifluoromethyl)pyridin-3-yl]methyl}-1H-pyrazol-4-yl)-8-[1-(2,2,2-trifluoroethyl)-1H-pyrazol-4-yl][1,2,4]triazolo[1,5-a]pyridin-2-amine]
19 | 120 nM | 71 nM | CCC(c1ccc(C(F)(F)F)cc1)n1cc(-c2cc(-c3cnn(C4CCCC4)c3)n3nc(N)nc3c2)cn1 (stereo not drawn) [II-132]
20 | 0.5 nM | 0.2 nM | Nc1nc2cc(-c3cnn(C(c4ccc(C(F)(F)F)nc4)C4CCOCC4)c3)cc(-c3ccc(=O)n(CC(F)F)c3)n2n1 (single isomer, unassigned) [II-187, 5-[2-Amino-7-(1-{tetrahydro-2H-pyran-4-yl[6-(trifluoromethyl)pyridin-3-yl]methyl}-1H-pyrazol-4-yl)[1,2,4]triazolo[1,5-a]pyridin-5-yl]-1-(2,2-difluoroethyl)pyridin-2(1H)-one]
21 | 61 nM | 160 nM | Nc1nc2cc(-c3cnn(C(c4ccc(C(F)F)nc4)C4CCOCC4)c3)cc(-c3ccc(C(F)(F)F)nc3)n2n1 (single isomer, unassigned) [II-77, 7-(1-{[6-(Difluoromethyl)pyridin-3-yl](tetrahydro-2H-pyran-4-yl)methyl}-1H-pyrazol-4-yl)-5-[6-(trifluoromethyl)pyridin-3-yl][1,2,4]triazolo[1,5-a]pyridin-2-amine]
